# Reference: publication PMC10648349, “Aromatic Diboronic Acids as Effective KPC/AmpC Inhibitors” (Molecules, 2023)
# Like-named read-outs stand apart in the source and are kept apart here.
# Columns and labels:
# CRE strains = conditions: cited from earlier work
# C. krusei ATCC 6258 = test: antifungal activity (disc-diffusion, MIC, MFC); type: cell-based, Candida krusei; conditions: Pichia kudriavzevii, ATCC6258
# Summary of the method: (§1)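 Testing of direct antimicrobial action relied on CLSI and EUCAST protocols, namely disc diffusion, MIC and cidal-concentration determinations. Each disc carried 0.4 mg of test agent.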
# B. subtilis ATCC 6633 = test: direct antimicrobial activity (disc-diffusion); type: cell-based; conditions: Bacillus subtilis, ATCC6633; 0.4 mg per disc, 9 mm disc (linezolid 0.03 mg, 6 mm disc); - no zone; read-out: Diameter of inhibition zone
# Method: (§2) Direct antimicrobial activity against Gram-negative and Gram-positive bacterial strains, as well as against yeast, was examined as previously described by the disc-diffusion test, the MIC determination assay, the MBC (for bacteria), and the MFC (for yeasts) determination tests. All the above-mentioned tests were performed according to EUCAST [71, 72] and CLSI [73, 74, 75, 76, 77] recommendations. The following reference agents were used: nitrofurantoin (for Gram-negative rods), linezolid (for Gram-positive bacteria), and fluconazole (in the case of fungi). The new aromatic diboronic acids were dissolved in DMSO (Sigma, St. Louis, MO, USA). In the disc-diffusion test, the concentration of new agents was 0.4 mg per disc.
# C. albicans ATCC 90028 = test: antifungal activity (disc-diffusion, MIC, MFC); type: cell-based; conditions: Candida albicans, ATCC90028
# Summary of the method: as §1
# C. tropicalis IBA 171 = test: antifungal activity (disc-diffusion, MIC, MFC); type: cell-based; conditions: Candida tropicalis, IBA171
# Summary of the method: as §1
# S. cerevisiae ATCC 9763 = test: antifungal activity (disc-diffusion, MIC, MFC); type: cell-based; conditions: Saccharomyces cerevisiae, ATCC9763
# Summary of the method: as §1
# C. tropicalis ATCC 750 = test: antifungal activity (disc-diffusion, MIC, MFC); type: cell-based; conditions: Candida tropicalis, ATCC750
# Summary of the method: as §1
# [1] = system: P. aeruginosa MUW 700 AmpC(+); test: screening test of direct antimicrobial activity (STDA), disc-diffusion; type: cell-based; conditions: Pseudomonas aeruginosa; 0.3 mg per disc; - no zone; read-out: Diameter of inhibition zone around disc with tested agent
# Method: (§3) Prior to combination disc tests, screening tests of direct antimicrobial activity (STDA) of the tested agent against β-lactamase-producing strains were performed by the disc-diffusion method. Discs with 0.3 mg, 0.1 mg, and 0.03 mg of each agent were examined. The highest amount of an agent that caused no effect on bacterial growth was used in further experiments.
# [2] = system: K. pneumoniae ATCC 700603 ESBL(+); test: as above; type: cell-based; conditions: Klebsiella pneumoniae, ATCC700603; 0.3 mg per disc; - no zone; read-out: Diameter of inhibition zone around disc with tested agent
# Method: as §3
# [3] = MTT-based viability assay; type: cell-based; conditions: human, MRC-5 human fibroblasts, 72 h, read-out: Viability of MRC-5 cells (% of viable cells ± SD)
# Summary of the method: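 MRC-5 human fibroblasts grown in MEME with 10% FBS at 37 °C, 5% CO2, tested by MTT with absorbance read at 570 nm. Viability given as percent of untreated control cells, in triplicate.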
# S. aureus ATCC 6538P = test: direct antimicrobial activity (disc-diffusion, MIC, MBC); type: cell-based; conditions: Staphylococcus aureus, ATCC6538P
# Summary of the method: as §1
# [4] = system: S. epidermidis ATCC 12228; test: as above; type: cell-based; conditions: Staphylococcus epidermidis, ATCC12228
# Summary of the method: as §1
# [5] = system: S. aureus ATCC 43300 MRSA; test: as above; type: cell-based; conditions: Staphylococcus aureus
# Summary of the method: as §1
# E. faecalis ATCC 29212 = test: as above; type: cell-based; conditions: Enterococcus faecalis, ATCC29212
# Summary of the method: as §1
# E. faecium ATCC 6057 = test: as above; type: cell-based; conditions: Enterococcus faecium, ATCC6057
# Summary of the method: as §1
# Gram-positive strains = test: direct antimicrobial activity, MIC; type: cell-based
# Method: as §2, with “disc. Depending on the solubility, the MIC and MBC/MFC values were determined up to 100 mg/L for 1k, up to 200 mg/L for 7c, and up to 400 mg/L for the remaining compounds: 1a–1j, 2a–2g, 3a–3f, 4a–4b, 5a–5c, 6a and 7a–7b.” for “disc.”
# [6] = system: C. parapsilosis ATCC 22019; test: antifungal activity (disc-diffusion, MIC, MFC); type: cell-based, Candida parapsilosis; conditions: Lodderomyces parapsilosis, ATCC22019
# Summary of the method: as §1
# [7] = system: Gram-negative rods (except P. aeruginosa); test: direct antimicrobial activity, MIC; type: cell-based
# Method: as §2
# [8] = system: C. guilliermondii IBA 155; test: antifungal activity (disc-diffusion, MIC, MFC); type: cell-based, Candida guilliermondii; conditions: Meyerozyma guilliermondii, IBA155
# Summary of the method: as §1
# KPC producers = test: microdilution with carbapenems; type: cell-based; conditions: strains used in this study
# Method: (§4) To examine the ability of tested agents to inhibit various carbapenemases and AmpC-enzymes, their synergy with antibiotics against β-lactamase-producing strains was assessed by checkerboard microdilution assay, with slight modification. Checkerboards were prepared in microtiter plates, with seven two-fold dilutions of β-lactams (1–64 mg/L) in the rows and three two-fold dilutions of tested agents and PBA (4–16 mg/L) in the columns. Tested agents’ concentrations were limited to the concentrations at which the newest commercially available BLIs (vaborbactam, relebactam, and avibactam) are used in susceptibility testing. Plates were inoculated and incubated as in the MIC microdilution assay. Parallel, MICs of tested agents and PBA alone were determined by the microdilution assay. Following the incubation, antibiotic MICs in the presence of each agent’s concentration were determined. Moreover, for the first well without growth found in each checkerboard row and column along the growth/non-growth interface, the fractional inhibitory concentration index (FICI) was calculated using the formula below:FICI = [(MIC of antibiotic in combination)/(MIC of antibiotic alone)] + [(MIC of the tested agent in combination)/(MIC of tested agent alone)].
# (§5) For calculations, all off-scale MICs were converted to the next-highest doubling concentration. Subsequently, both the average and the lowest FICI were interpreted. The interpretation was as follows: FICI ≤ 0.5, synergy; 0.5 < FICI ≤ 4, indifference and FICI > 4, antagonism. Primarily, examined combinations consisted of meropenem (Pol-Aura, Morag, Poland) plus tested agents against carbapenemases-producing strains and ceftazidime (Pol-Aura, Morag, Poland) plus tested agents against AmpC-producing strains. For agents that reduced meropenem MIC at least 4-fold for at least two tested strains, similar assays were performed with imipenem (Pol-Aura, Morag, Poland) and ertapenem (Pol-Aura, Morag, Poland).
# [9] = system: K. pneumoniae 81 KPC-3-positive; test: checkerboard microdilution, antibiotic plus tested agent; type: cell-based, Klebsiella pneumoniae; conditions: Klebsiella pneumoniae
# Method: as §4, §5
# [10] = system: K. pneumoniae ATCC BAA-1705 KPC-2-positive; test: as above; type: cell-based, Klebsiella pneumoniae; conditions: Klebsiella pneumoniae, ATCCBAA1705
# Method: as §4, §5
# [11] = system: K. pneumoniae 83 KPC-3-positive, CTX-M-3-positive; test: as above; type: cell-based, Klebsiella pneumoniae; conditions: Klebsiella pneumoniae
# Method: as §4, §5
# [12] = system: E. coli 76 KPC-2-positive; test: as above; type: cell-based, Escherichia coli; conditions: Escherichia coli
# Method: as §4, §5
# [13] = system: K. pneumoniae ATCC BAA 1705 KPC-2-positive; test: combination disc test CDT-KPC; type: cell-based; conditions: Klebsiella pneumoniae, BAA1705; meropenem 10 µg per disc, 6 mm disc; read-out: Diameter of inhibition zone, MEM-10 disc without agent
# E. coli DH5α = test: whole cell assay, meropenem MIC with tested agent; type: cell-based, Escherichia coli; conditions: Escherichia coli; read-out: MIC of meropenem alone
# Method: as §4
# [14] = system: E. coli 82 TR(pl 81), transformant carrying blaKPC-3; test: whole cell assay, meropenem MIC with tested agent; type: cell-based, Escherichia coli; conditions: Escherichia coli, read-out: MIC of meropenem alone
# Method: as §4
# [15] = system: P. aeruginosa 1204 VIM(+); test: checkerboard microdilution, antibiotic plus tested agent; type: cell-based; conditions: Pseudomonas aeruginosa; read-out: MIC of meropenem alone
# Method: as §4
# For calculations, all off-scale MICs were converted to the next-highest doubling concentration. […]
# [16] = 0.4 mg per disc, 9 mm disc (fluconazole 0.025 mg, 6 mm disc), - no zone, read-out: Diameter of inhibition zone
# [17] = 0.4 mg per disc, 9 mm disc (linezolid 0.03 mg, 6 mm disc), - no zone, read-out: Diameter of inhibition zone
# [18] = read-out: MIC of ertapenem alone
# [19] = read-out: MIC of meropenem alone
compound,measurement,setting,value
O=C(O)c1c(F)ccc2c1OB(O)[C@@H]1C[C@H]21 [xeruborbactam],MIC,CRE strains,16 µg/mL
OB(O)c1cc(I)c(B(O)O)cc1I [1j],zone of inhibition at 0.4 mg/disc,C. krusei ATCC 6258; [16],23 mm
same,MIC,C. krusei ATCC 6258; fluconazole by Etest,400 µg/mL
same,zone of inhibition at 0.4 mg/disc,B. subtilis ATCC 6633,20 mm
same,zone of inhibition at 0.4 mg/disc,C. albicans ATCC 90028; [16],24 mm
same,MIC,C. albicans ATCC 90028; fluconazole by Etest,200 µg/mL
same,zone of inhibition at 0.4 mg/disc,C. tropicalis IBA 171; [16],15 mm
same,MIC,C. tropicalis IBA 171; fluconazole by Etest,> 400 µg/mL
same,zone of inhibition at 0.4 mg/disc,S. cerevisiae ATCC 9763; [16],20 mm
same,MIC,S. cerevisiae ATCC 9763; fluconazole by Etest,> 400 µg/mL
same,zone of inhibition at 0.4 mg/disc,C. tropicalis ATCC 750; [16],17 mm
same,MIC,C. tropicalis ATCC 750; fluconazole by Etest,> 400 µg/mL
same,zone of inhibition at 300 µg/disc,[1],14 mm
same,zone of inhibition at 300 µg/disc,[2],11 mm
same,"viability at 72 h, 12.5 mg/L",[3]; 12.5 mg/L,125 ± 2.8%
same,"viability at 72 h, 25 mg/L",[3]; 25 mg/L,117 ± 1.2%
same,"viability at 72 h, 50 mg/L",[3]; 50 mg/L,88.6 ± 3.5%
same,MIC,S. aureus ATCC 6538P,50 µg/mL
same,zone of inhibition at 0.4 mg/disc,S. aureus ATCC 6538P; [17],19 mm
same,MIC,[4],50 µg/mL
same,zone of inhibition at 0.4 mg/disc,[4]; [17],25 mm
same,MIC,[5],50 µg/mL
same,zone of inhibition at 0.4 mg/disc,[5]; [17],21 mm
same,MIC,E. faecalis ATCC 29212,400 µg/mL
same,MIC,E. faecium ATCC 6057,400 µg/mL
same,MIC,Gram-positive strains; enterococci,100 to 400 µg/mL
same,MIC,Gram-positive strains; staphylococci,12.5 to 50 µg/mL
same,zone of inhibition at 0.4 mg/disc,[6]; [16],15 mm
same,MIC,[6]; fluconazole by Etest,> 400 µg/mL
same,MIC,[7],50 to 400 µg/mL
same,zone of inhibition at 0.4 mg/disc,[8]; [16],30 mm
same,MIC,[8]; fluconazole by Etest,400 µg/mL
"C[C@@H](O)[C@H]1C(=O)N2C(C(=O)O)=C(S[C@@H]3CN[C@H](C(=O)Nc4cccc(C(=O)O)c4)C3)[C@H](C)[C@H]12 [ERT, ertapenem, reference compound]",MIC range of ertapenem alone,KPC producers,32 to 256 µg/mL
same,MIC,[9]; [18],32 µg/mL
same,MIC,[10]; [18],64 µg/mL
same,MIC,[11]; [18],64 µg/mL
same,MIC,[12]; [18],256 µg/mL
"C[C@@H](O)[C@H]1C(=O)N2C(C(=O)O)=C(S[C@@H]3CN[C@H](C(=O)N(C)C)C3)[C@H](C)[C@H]12 [MEM, meropenem, reference compound]",zone of inhibition at 10 µg/disc,[13],6 mm
same,MIC,E. coli DH5α,0.016 µg/mL
same,MIC,[14],2 µg/mL
same,MIC,[15],64 µg/mL
same,MIC,[9]; [19],16 µg/mL
same,MIC,[10]; [19],32 µg/mL
same,MIC,[11]; [19],32 µg/mL
same,MIC,[12]; [19],64 µg/mL
